Test results: ChEMBL document CHEMBL4417624, “Small molecule c-myc inhibitors” (2016)
Activity calls are given as the source filed them. The rule behind the calls is not given here.

Tests used:
[1] = molecular target: Myc proto-oncogene protein (Homo sapiens) (UniProt P01106); assay: Inhibition of human ATG-Myc expressed in chicken embryo fibroblasts assessed as reduction in Myc-induced oncogenic transformation by measuring efficiency of oncogenic transformation
[2] = molecular target: Myc proto-oncogene protein (Homo sapiens) (UniProt P01106); assay: Inhibition of human ATG-Myc expressed in chicken embryo fibroblasts assessed as reduction in Myc-induced oncogenic transformation by measuring efficiency of oncogenic transformation at 10 uM
c-Myc/Max (Homo sapiens) [3] = molecular target: T1, c-Myc/Max (Homo sapiens) (UniProt P01106+P61244); assay: Inhibition of dimerization of human MYC bHLH-LZ domain/MAX bHLH-LZ domain expressed in Escherichia coli in presence of Alexa Fluor 594-tagged E-box duplex DNA by fluorescence polarization assay
c-Myc/Max (Homo sapiens) [4] = molecular target: T1, c-Myc/Max (Homo sapiens); assay: Inhibition of MYC/MAX dimerization in human MDA-MB-231 cells assessed as reduction in Myc expression at 20 uM incubated for 24 hrs by Western blot analysis; format: cell-based
c-Myc/Max (Homo sapiens) [5] = molecular target: T1, c-Myc/Max (Homo sapiens); assay: Inhibition of MYC/MAX dimerization in human MDA-MB-231 cells assessed as increase in NDRG1 expression at 20 uM incubated for 24 hrs by Western blot analysis; format: cell-based
Rous sarcoma virus = assay: Inhibition of Rous sarcoma virus v-SRC expressed in chicken embryo fibroblasts assessed as reduction in Myc-induced oncogenic transformation by measuring efficiency of oncogenic transformation up to 20 uM
Mus musculus [6] = assay: Inhibition of Myc in nude mouse xenografted with human MDA-MB-231 cells assessed as increase in NDRG1 expression at 10 mg/kg, ip dosed daily for 31 days by Western blot analysis; format: functional, organism-based
[7] = Antiproliferative activity against HSF assessed as inhibition of cell proliferation at 50 uM incubated for 3 days by Cell-titer 96 Non-radioactive cell proliferation assay; conditions: human, 72 h
Ramos = assay: Antiproliferative activity against human Ramos cells assessed as inhibition of cell proliferation at 2.5 to 10 uM incubated for 72 hrs by resazurin dye based assay; format: functional
Mus musculus [8] = assay: Inhibition of Myc in nude mouse xenografted with human MDA-MB-231 cells assessed as increase in NDRG1 expression at 10 mg/kg, ip dosed daily for 31 days by immunofluorescent staining; format: functional, organism-based
Homo sapiens [9] = species on record: Homo sapiens; assay: Inhibition of PI3K H1047R mutant (unknown origin) expressed in chicken embryo fibroblasts assessed as reduction in Myc-induced oncogenic transformation by measuring efficiency of oncogenic transformation up to 20 uM
Avian sarcoma virus 17 = assay: Inhibition of Avian sarcoma virus 17 v-Jun expressed in chicken embryo fibroblasts assessed as reduction in Myc-induced oncogenic transformation by measuring efficiency of oncogenic transformation up to 20 uM
SW480 = assay: Antiproliferative activity against human SW480 cells assessed as inhibition of cell proliferation at 50 uM incubated for 3 days by Cell-titer 96 Non-radioactive cell proliferation assay; format: functional, cell-based
MDA-MB-231 [10] = assay: Antitumor activity against human MDA-MB-231 cells xenografted in nude mouse assessed as reduction tumor weight at 10 mg/kg, ip dosed daily for 31 days; format: functional, organism-based
SUM-159-PT = assay: Antiproliferative activity against human SUM159PT cells assessed as inhibition of cell proliferation at 10 to 40 uM incubated for 3 days by Cell-titer 96 Non-radioactive cell proliferation assay; format: functional, cell-based
Cotesia glomerata [11] = assay: Antiproliferative activity against methylcholanthrene-transformed primary quail embryo fibroblasts assessed as inhibition of cell proliferation at 50 uM incubated for 3 days by Cell-titer 96 Non-radioactive cell proliferation assay; format: functional
[12] = molecular target: Myc proto-oncogene protein (Homo sapiens) (UniProt P01106); conditions: MDA-MB-231, 20 uM
Description: Inhibition of Myc in human MDA-MB-231 cells assessed as increase in NDRG1 expression at 20 uM incubated for 24 hrs by Western blot analysis

Raji = assay: Antiproliferative activity against human Raji cells assessed as inhibition of cell proliferation at 2.5 to 10 uM incubated for 72 hrs by resazurin dye based assay; format: functional
MOLT-4 = assay: Antiproliferative activity against human MOLT4 cells assessed as inhibition of cell proliferation at 25 uM incubated for 3 days by Cell-titer 96 Non-radioactive cell proliferation assay; format: functional, cell-based
Cotesia glomerata [13] = assay: Antiproliferative activity against v-myc-transformed primary QEF/MC29 cells assessed as inhibition of cell proliferation at 50 uM incubated for 3 days by Cell-titer 96 Non-radioactive cell proliferation assay; format: functional
[14] = Toxicity in nude mouse xenografted with human MDA-MB-231 cells assessed as effect on body weight at 10 mg/kg, ip dosed daily for 31 days; format: organism-based; conditions: in vivo, 744 h
K562 = assay: Antiproliferative activity against human K562 cells assessed as inhibition of cell proliferation at 25 uM incubated for 3 days by Cell-titer 96 Non-radioactive cell proliferation assay; format: functional, cell-based
MDA-MB-231 [15] = assay: Antitumor activity against human MDA-MB-231 cells xenografted in nude mouse assessed as reduction tumor volume at 10 mg/kg, ip dosed daily for 31 days; format: functional, organism-based
HL-60 = assay: Antiproliferative activity against human HL60 cells assessed as inhibition of cell proliferation at 25 uM incubated for 3 days by Cell-titer 96 Non-radioactive cell proliferation assay; format: functional, cell-based
MDA-MB-231 [16] = assay: Antiproliferative activity against human MDA-MB-231 cells assessed as inhibition of cell proliferation at 10 to 40 uM incubated for 3 days by Cell-titer 96 Non-radioactive cell proliferation assay; format: functional, cell-based
MDA-MB-231 [17] = assay: Effect on Myc expression in human MDA-MB-231 cells at 20 uM incubated for 24 hrs by Western blot analysis; format: functional, cell-based
[18] = Acute toxicity in mouse at 10 mg/kg; format: organism-based; conditions: in vivo
Homo sapiens [19] = species on record: Homo sapiens; assay: Antiproliferative activity against human Akata cells assessed as inhibition of cell proliferation at 2.5 to 10 uM incubated for 72 hrs by resazurin dye based assay; format: functional
[20] = Acute toxicity in rat at 10 mg/kg; format: organism-based; conditions: in vivo
NCI-H460 = assay: Antiproliferative activity against human NCI-H460 cells assessed as inhibition of cell proliferation at 10 to 40 uM incubated for 3 days by Cell-titer 96 Non-radioactive cell proliferation assay; format: functional, cell-based

Sequence of Myc proto-oncogene protein (Homo sapiens) (P01106 whole entry, the tested form may be a part): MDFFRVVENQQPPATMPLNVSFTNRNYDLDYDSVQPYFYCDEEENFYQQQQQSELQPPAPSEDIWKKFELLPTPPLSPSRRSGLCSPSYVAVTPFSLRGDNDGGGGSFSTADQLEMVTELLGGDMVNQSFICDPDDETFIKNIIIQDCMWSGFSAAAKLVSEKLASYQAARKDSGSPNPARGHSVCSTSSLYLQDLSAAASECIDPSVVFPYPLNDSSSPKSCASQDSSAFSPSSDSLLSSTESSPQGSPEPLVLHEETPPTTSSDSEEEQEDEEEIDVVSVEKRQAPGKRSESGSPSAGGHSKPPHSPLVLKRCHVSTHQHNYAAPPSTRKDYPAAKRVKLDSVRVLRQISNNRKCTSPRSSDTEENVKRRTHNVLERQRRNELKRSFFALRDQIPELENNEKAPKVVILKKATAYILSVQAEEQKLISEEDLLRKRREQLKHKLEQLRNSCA

COC(=O)c1cccc(-c2cc(-c3ccc(C(N)=O)cc3)cc(-c3ccco3)n2)c1
inhibition [1]: Active
inhibition [2]: 100%
inhibition (c-Myc/Max (Homo sapiens) [3]): Active

NC(=O)c1ccc(-c2cc(-c3ccc([N+](=O)[O-])cc3)nc(-c3ccccn3)c2)cc1
inhibition [2]: inactive
inhibition (c-Myc/Max (Homo sapiens) [3]): inactive

CCc1ccc(/C=C2/SC(=S)NC2=O)cc1
inhibition (c-Myc/Max (Homo sapiens) [4]): Active
inhibition (c-Myc/Max (Homo sapiens) [5]): Active

NC(=O)c1ccc(-c2cc(-c3ccc([N+](=O)[O-])cc3)nc(-c3ccccc3Br)c2)cc1
inhibition [2]: inactive
inhibition (c-Myc/Max (Homo sapiens) [3]): inactive

NC(=O)c1ccc(-c2cc(-c3ccc(OC(F)(F)F)cc3)nc(-c3ccco3)c2)cc1
inhibition [2]: Active
inhibition (c-Myc/Max (Homo sapiens) [3]): Active

NC(=O)c1ccc(-c2cc(-c3ccc([N+](=O)[O-])cc3)nc(-c3ccc(Br)cn3)c2)cc1
inhibition [2]: inactive
inhibition (c-Myc/Max (Homo sapiens) [3]): inactive

CN1CCN(c2ccc(-c3cc(-c4ccc(C(N)=O)cc4)cc(-c4ccc([N+](=O)[O-])cc4)n3)cc2)CC1
inhibition [1]: Active
inhibition (c-Myc/Max (Homo sapiens) [3]): inactive

NC(=O)c1ccc(-c2cc(-c3ccc([N+](=O)[O-])cc3)nc(-c3cccc(Br)n3)c2)cc1
inhibition [2]: inactive
inhibition (c-Myc/Max (Homo sapiens) [3]): inactive

NC(=O)c1ccc(-c2cc(-c3ccc([N+](=O)[O-])cc3)nc(-c3ccco3)c2)cc1
inhibition (Rous sarcoma virus): inactive
inhibition (Mus musculus [6]): Active
Activity [7]: Non-Toxic
inhibition [1]: Dose-dependent effect
Activity (Ramos): Active
inhibition (Mus musculus [8]): Active
inhibition (Homo sapiens [9]): Active
inhibition (Avian sarcoma virus 17): Active
Activity (SW480): inactive
Activity (MDA-MB-231 [10]): Active
Activity (SUM-159-PT): Active
Activity (Cotesia glomerata [11]): Active
inhibition [12]: Active
inhibition [2]: 100%
Activity (Raji): Active
Activity (MOLT-4): Active
Activity (Cotesia glomerata [13]): Active
Activity [14]: Non-Toxic
inhibition (c-Myc/Max (Homo sapiens) [3]): Active
Activity (K562): Active
Activity (MDA-MB-231 [15]): Active
Activity (HL-60): Active
Activity (MDA-MB-231 [16]): Active
Activity (MDA-MB-231 [17]): inactive
Activity [18]: Non-Toxic
Activity (Homo sapiens [19]): Active
Activity [20]: Non-Toxic
Activity (NCI-H460): Active

NC(=O)c1ccc(-c2cc(-c3ccc(S(N)(=O)=O)cc3)nc(-c3ccco3)c2)cc1
inhibition (c-Myc/Max (Homo sapiens) [3]): Active

CS(=O)(=O)c1ccc(-c2cc(-c3ccc(C(N)=O)cc3)cc(-c3ccco3)n2)cc1
inhibition [2]: inactive
inhibition (c-Myc/Max (Homo sapiens) [3]): inactive

NC(=O)c1ccc(-c2cc(-c3ccc(C(F)(F)F)cc3)nc(-c3ccco3)c2)cc1
inhibition [2]: Active
inhibition (c-Myc/Max (Homo sapiens) [3]): Active

NC(=O)c1ccc(-c2cc(-c3ccncc3)nc(-c3ccc([N+](=O)[O-])cc3)c2)cc1
inhibition [2]: 100%
inhibition (c-Myc/Max (Homo sapiens) [3]): Active

NC(=O)c1ccc(-c2cc(-c3ccc(Br)cc3)nc(-c3ccc([N+](=O)[O-])cc3)c2)cc1
inhibition [2]: inactive
inhibition (c-Myc/Max (Homo sapiens) [3]): inactive

COC(=O)c1ccc(-c2cc(-c3ccc(C(N)=O)cc3)cc(-c3ccco3)n2)cc1
inhibition [2]: inactive
inhibition (c-Myc/Max (Homo sapiens) [3]): inactive

NC(=O)c1ccc(-c2cc(-c3ccc([N+](=O)[O-])cc3)nc(-c3ccco3)c2)o1
inhibition [2]: Active
inhibition (c-Myc/Max (Homo sapiens) [3]): Active

N#Cc1ccc(-c2cc(-c3ccc(C(N)=O)cc3)cc(-c3ccco3)n2)cc1
inhibition [1]: Active
inhibition [2]: 100%
inhibition (c-Myc/Max (Homo sapiens) [3]): Active

NC(=O)c1ccc(-c2cc(-c3ccc(SC(F)(F)F)cc3)nc(-c3ccco3)c2)cc1
inhibition [2]: inactive
inhibition (c-Myc/Max (Homo sapiens) [3]): inactive
